Experimental data reported in article PMC4515083, “Selective Targeting of the TPX2 Site of Importin-α Using Fragment-Based Ligand Design” (Chemmedchem, 2015).
One block for each compound: values may come before it.

Target: T1, ΔIBB-importin-α (importin-α1, KPNA2) (Mus musculus, UniProt P52293)
T1 construct: modified pET-30a with TEV-cleavable His6/S-tag, tag cleaved; recombinant
Assay: direct ITC
Assay type: binding
From the text: direct ITC on ΔIBB-importin-α (importin-α1, KPNA2)

Kd: 4 ± 0.5 mM
Compound: NCCCC[C@H](NCc1ccc(-c2cccnc2)cc1)C(N)=O [compound 11]

Kd: > 10 mM
Compound: NCCCC[C@H](NC(=O)c1ccc(-c2cccnc2)cc1)C(N)=O [compound 14]

Kd: 3.8 ± 0.4 mM
Compound: NCCCC[C@@H](NCc1ccc(-c2cccnc2)cc1)C(N)=O [compound 15]

The remaining lines, values behind:

Compound: NCCCC[C@H](NCc1cccc(-c2cccnc2)c1)C(N)=O [compound 16]
Kd: 1.3 ± 0.1 mM

Compound: NCCCC[C@H](NCc1ccc(-c2cccnc2)s1)C(N)=O [compound 17]
Kd: 0.9 ± 0.1 mM
